{"source": "patent US20230322744A1", "about": "“COMPOUNDS AS GLP-1R AGONISTS” (Terns Pharmaceuticals, Inc., priority 2020, published 2023)", "biological_target": "wild-type human GLP-1R (Homo sapiens, UniProt P43220)", "sequence (P43220 24-463)": "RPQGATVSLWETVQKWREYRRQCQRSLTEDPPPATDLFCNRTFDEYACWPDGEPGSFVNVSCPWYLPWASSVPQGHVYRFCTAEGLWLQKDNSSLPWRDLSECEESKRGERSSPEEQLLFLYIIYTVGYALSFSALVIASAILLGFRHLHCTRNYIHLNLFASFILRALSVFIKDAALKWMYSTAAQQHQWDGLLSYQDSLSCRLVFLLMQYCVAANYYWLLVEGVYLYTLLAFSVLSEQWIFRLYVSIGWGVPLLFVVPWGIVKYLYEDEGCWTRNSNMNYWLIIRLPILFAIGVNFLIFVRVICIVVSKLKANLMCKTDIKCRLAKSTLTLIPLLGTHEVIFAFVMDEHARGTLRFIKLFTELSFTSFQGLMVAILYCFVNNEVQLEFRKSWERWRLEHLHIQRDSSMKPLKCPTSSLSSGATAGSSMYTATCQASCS", "test": "GLP-1R Cell Assay 1 (cAMP Hunter CHO-K1 GLP1R Gs cell line, HitHunter cAMP assay)", "type": "cell-based", "conditions": "agonist activity, cellular cAMP, CHO-K1 overexpressing human GLP-1R; normalized to Exendin-4; Table 3; no stereo designation = tested as mixture of stereoisomers", "procedure": "GLP-1R mediated agonist activity was determined using the cAMP Hunter CHO-K1 GLP1R Gs cell line (DiscoverX, cat #95-0062C2), a stable CHO-K1 derived cell lines overexpressing naturally Gs coupled wild-type human GLP-1R (accession number: NM_002062.3). GLP-1R agonism in this cell line was detected by measuring cellular cAMP levels using the HitHunter cAMP assay kit (cat #90-0075SM2), a homogenous, gain-of-signal competitive immune assay based on Enzyme Fragment Complementation (EFC) technology. In this system cellular cAMP competes with exogenous labeled cAMP (ED-cAMP) for binding to an anti-cAMP antibody. […] The luminescent signal is directly proportional to the amount of cellular cAMP.\nFor compound testing, cells were seeded in a total volume of 20 μL in white walled, 384-well microplates and incubated at 37° C. prior to compound testing. Prior to compound addition, cell culture media was removed by aspiration and replaced with 15 μL reagent buffer (2:1 HBSS/10 mM HEPES: cAMP XS+Ab reagent). […] Microplates were read on a PerkinElmer Envision instrument. Compound activity was analyzed using CBIS data analysis suite (ChemInnovation). Percent activity was calculated based on duplicate assay runs and normalized to the positive control Exendin-4, a GLP-1R peptide agonist, using the following formula: […]"}
{"molecule": "CCn1cncc1Cn1c(CN2CC[C@]3(c4cccnc4OCc4ccc(C#N)cc4F)C[C@@H]3C2)nc2ccc(C(=O)O)cc21", "note": "(single isomer, unassigned) [Compound 166, 2-((6-(2-((4-cyano-2-fluorobenzyl)oxy)pyridin-3-yl)-3-azabicyclo[4.1.0]heptan-3-yl)methyl)-1-((1-ethyl-1H-imidazol-5-yl)methyl)-1H-benzo[d]imidazole-6-carboxylic acid]", "values": [{"measurement": "EC50", "result": 0.0594, "unit": "µM"}]}
